Test results published in patent US5206223A, “Method for inhibiting heparanase activity” (Yeda Research and Development Co. Ltd., priority 1986, dated 1993).

Columns and labels:
lymphocytes = details: 17-35 mg/kg/rat; cited from earlier work
rheumatoid arthritis = experiment: Treatment of patients with rheumatoid arthritis; format: in vivo, human; details: about 300-500 units daily for 1 month, three patients
Text: As DTH reactions to self antigens are involved in autoimmune diseases, we have begun to test low dose heparin (about 300-500 units daily) in patients with rheumatoid arthritis.

adjuvant arthritis = details: 1000 U/rat; cited from earlier work
DTH reaction [1] = experiment: Adoptively transferred DTH to OX: ear swelling and 51Cr I-LNC migration to the ear; format: in vivo, mice; details: for DTH ear swelling (FIG. 6 left): I-LNC transferred intravenously, 24 h
Protocol: I-LNC were obtained from OX sensitized mice (groups A-C) and naive LNC from unsensitized mice (group D). The LNC were transferred intravenously to naive recipients that were treated (groups B-C) or untreated (groups A,D) with heparin (5 μg or 20 μg) injected 18 h and 1 h prior to cell transfer and 20 h after cell transfer. DTH ear swelling was elicited by OX at the time of cell transfer and measured 24 h later.
Right: Heparin inhibits cell migration to DTH challenge site. The experiment was done as described in FIG. 6 (left), except that I-LNC were radiolabeled with ^51 Cr prior to cell transfer into naive recipient mice. The accumulation of I-LNC in the OX challenged ears is indicated as the ^51 Cr (cpm/ear).
Mice were sensitized to 4-ethoxymethylene-2-phenyl oxazolone (OX) by painting their skins twice at 5 day intervals with about 0.1 ml of 3% OX in a vehicle of 4:1 acetone:olive oil (by volume). Their immunized draining lymph node cells (I-LNC) were then transfered (5×10^7) to recipient mice intravenously. The ability of the I-LNC to reach the site of antigen and produce a DTH reaction was assayed by challenging the recipient mice 1 hr after I-LNC transfer with 0.02 ml of 0.5% OX painted on the ear. DTH was ascertained by measuring the thickness of the ears 24 hrs later with an engineers micrometer.
The ability of the transfered I-LNC to reach the ears was tested by labeling the I-LNC before transfer with radioactive ^51 Cr (10^7 cells/ml incubated with 0.1 mCi ^51 Cr sodium chromate and washed) and measuring the amount cpm reaching the ears at the time of DTH.

DTH skin response = details: human, in vivo
[2] = rat, in vivo, 10 mg/kg
heparanase = experiment: Heparanase activity of I-LNC from heparin-treated OX-immunized mice; details: 5 μg per injection in vivo, I-LNC incubated 48 h with labeled ECM
Protocol: Mice were immunized with OX on days 0 and 5. Some of the mice were treated with heparin (5 μg or 25 μg per injection) 18 h before and 2, 10 and 20 h after the day 5 immunization with OX. On day 6, the I-LNC were removed and tested for heparanase activity by incubation for 48 h with labeled ECM. Heparan sulfate degradation products are shown for I-LNC from the following groups of mice: No heparin; 25 μg heparin X; 5 μg heparin-0. The LNC of control mice not immunized to OX had no heparanase activity (not shown).
To learn if these effects were associated with inhibition of endogenous heparanase, we treated mice with high (25 μg) or low (5 μg) doses of heparin, sensitized them to OX and tested their I-LNC for heparanase activity in vitro. […] Thus, treatment with 5 μg of heparin in vivo caused a substantial decrease of enzyme activity in sensitized lymphocytes.

[3] = Partial thromboplastin time in human volunteers; format: in vivo; details: 3 mg (500 units) per day
Protocol: The effective dose of heparin, 3 mg (500 units) per day, was computed from the optimal dose per weight in mice and rats and corrected for surface area. […] (not shown).

skin allografts = experiment: Skin allograft survival (SJL/J skin on (BALB/c×C57BL/6)F1 mice); format: in vivo; details: 0.05 mg/kg daily
Protocol: FIG. 1. Treatment with heparin (0.05 mg/kg) prevents rejection of skin allografts. Mice of hybrid strain (BALB/c×C57BL/6)F1 were grafted with skin from allogeneic SJL/J mice. The mice (20 per group) were treated daily with subcutaneous injections of saline (squares) or with heparin ("Leo", 0.05 mg/kg; diamonds) and scored for skin graft survival. Median survival for the control group was 10 days while that for the heparin treated group was 24 days.
FIG. 2. Treatment with N-desulfated, N-acetylated heparin (10 mg/kg) prevents rejection of skin allografts. Mice were grafted as described for FIG. 1 and treated daily with saline (squares) or N-desulfated, N-acetylated heparin (10 mg/kg; diamonds). The median survival of the skin allograft in the control group was 10 days while that in the treated group was 20 days.
The median survival time of the skin grafts on control mice treated with saline was […] while that on mice treated with 0.05 mg/kg daily of heparin was 26 days with maximal survival to 32 days.

DTH reaction [4] = experiment: In situ DTH: I-LNC injected directly into the ears; format: in vivo, mice; details: heparin 5 u.g, I-LNC intradermally into ears, 24 h
Protocol: If inhibition of heparanase and heparanase-dependent traffic is the major mechanism by which low dose heparin suppresses DTH, then one might be able to bypass the inhibition of DTH by bypassing the need for vascular traffic of sensitized T lymphocytes. Accordingly we treated recipient mice with an inhibitory dose (5 μg) of heparin, and then injected the donor I-LNC directly into the ears, rather than intravenously. Table 7 illustrates that putting the sensitized lymphocytes in situ bypassed the inhibitory effect on the DTH of 5 μg of heparin. Thus low dose heparin treatment appeared to inhibit DTH only when the DTH-mediat lymphocytes had to make their way to the site of the antigen by way of the circulation.
I-LNC were obtained from BALB/c mice sensitized to OX 5 days earlier. The I-LNC were centrifuged, resuspended in RPMI medium and injected intradermally (3×10^6 cells/20 μ/l) into the dorsal surface of the ears of naive recipient mice. The ears were challenged with OX immediately after cell transfer. The magnitude of DTH ear swelling was determined 24 h later.

## heparin
lymphocytes
  Emigration of lymphocytes from the circulation: inhibit the emigration of lymphocytes from the circulation
Rheumatoid arthritis
  Clinical improvement of severe rheumatoid arthritis: all 3 were improved
Adjuvant arthritis
  Severity of rat adjuvant arthritis: enhanced the severity of the rat adjuvant arthritis
DTH reaction [1]; 5 μg per injection
  Accumulation of 51Cr I-LNC in OX challenged ears (cpm/ear, FIG. 6 right): decreased cpm
  DTH ear swelling (FIG. 6 left): decreased ear swelling
DTH reaction [1]; 20 μg per injection
  Accumulation of 51Cr I-LNC in OX challenged ears (cpm/ear, FIG. 6 right): did not inhibit
  DTH ear swelling (FIG. 6 left): did not inhibit
DTH skin response
  Effect on the DTH response (FIG. 9): did not have a significant inhibitory effect
  Extent of induration: decreased similarly
  Mean diameter of erythema to mumps during treatment: 13.6 mm
  Mean diameter of erythema to tetanus toxoid during treatment: 16.8 mm
  Reversibility of the effect on the DTH response (FIG. 9): transient
DTH skin response; sc
  Volunteers with significantly decreased DTH response to mumps: 11/12
  Volunteers with significantly decreased DTH response to tetanus: 10/12
[2]
  Anti-coagulant effect (prothrombin time): increase in the prothrombin time
heparanase
  Heparanase activity of I-LNC (FIG. 7): lacked heparanase activity
[3]
  Partial thromboplastin time: no change in the partial thromboplastin time
Skin allografts
  Maximal survival of skin allograft: 32 days
DTH reaction [4]; OX challenge no, no heparin 9 ± 1.0
  Ear swelling: 8 ± 1.0 ×10^-4 inch
DTH reaction [4]; OX challenge yes, no heparin 22 ± 3.4
  Ear swelling: 20.4 ± 1.6 ×10^-4 inch
